Paper PMC7884382, “A Phase 1 study of RO6870810, a novel bromodomain and extra-terminal protein inhibitor, in patients with NUT carcinoma, other solid tumours, or diffuse large B-cell lymphoma” (British Journal of Cancer, 2020)
Like-named read-outs stand apart in the source and are kept apart here.

Details: in vivo
Protocol: Patients were considered evaluable for safety if they received ≥1 injection of the study drug. All adverse events (AEs) were graded per the National Cancer Institute’s Common Terminology Criteria for Adverse Events (CTCAE) version 4.03.
Grade ≤3 drug-related fever or skin or SC tissue disorders localised to the site of injection—including grade ≤3 rash, pruritus, skin induration or pain—were not considered DLTs.
Data for patients with NC and lymphoma were evaluated but not included in the MTD determination.

Cc1sc2c(c1C)C(c1ccc(Cl)cc1)=N[C@@H](CC(=O)NCCCN1CCN(C)CC1)c1nnc(C)n1-2 [RO6870810]
Treatment-emergent AE: Injection site induration (human, 0.06 mg/kg): 0 n (%)
Treatment-emergent AE: Injection site pain (human, 0.06 mg/kg): 1 (33.3) n (%)
Treatment-emergent AE: Injection site pruritus (human, 0.06 mg/kg): 1 (33.3) n (%)
Treatment-emergent AE: Injection site reaction (human, 0.06 mg/kg): 0 n (%)
Treatment-emergent AE: Injection site swelling (human, 0.06 mg/kg): 0 n (%)
Treatment-emergent AE: Malaise (human, 0.06 mg/kg): 1 (33.3) n (%)
Treatment-emergent AE: Myalgia (human, 0.06 mg/kg): 0 n (%)
Treatment-emergent AE: Nausea (human, 0.06 mg/kg): 0 n (%)
Treatment-emergent AE: Thrombocytopenia (human, 0.06 mg/kg): 0 n (%)
Treatment-emergent AE: Vomiting (human, 0.06 mg/kg): 0 n (%)
Treatment-emergent AE: Abdominal pain (human, 0.1 mg/kg): 1 (25.0) n (%)
Treatment-emergent AE: Anemia (human, 0.1 mg/kg): 2 (50.0) n (%)
Treatment-emergent AE: Back pain (human, 0.1 mg/kg): 2 (50.0) n (%)
Treatment-emergent AE: Blood bilirubin increased (human, 0.1 mg/kg): 1 (25.0) n (%)
Treatment-emergent AE: Constipation (human, 0.1 mg/kg): 3 (75.0) n (%)
Treatment-emergent AE: Cough (human, 0.1 mg/kg): 1 (25.0) n (%)
Treatment-emergent AE: Decreased appetite (human, 0.1 mg/kg): 4 (100) n (%)
Treatment-emergent AE: Dehydration (human, 0.1 mg/kg): 2 (50.0) n (%)
Treatment-emergent AE: Diarrhea (human, 0.1 mg/kg): 3 (75.0) n (%)
Treatment-emergent AE: Dizziness (human, 0.1 mg/kg): 2 (50.0) n (%)
Treatment-emergent AE: Dry mouth (human, 0.1 mg/kg): 1 (25.0) n (%)
Treatment-emergent AE: Dysgeusia (human, 0.1 mg/kg): 0 n (%)
Treatment-emergent AE: Dyspnea (human, 0.1 mg/kg): 1 (25.0) n (%)
Treatment-emergent AE: Fatigue (human, 0.1 mg/kg): 3 (75.0) n (%)
Treatment-emergent AE: Headache (human, 0.1 mg/kg): 1 (25.0) n (%)
Treatment-emergent AE: Hypomagnesaemia (human, 0.1 mg/kg): 0 n (%)
Treatment-emergent AE: Injection site erythema (human, 0.1 mg/kg): 2 (50.0) n (%)
Treatment-emergent AE: Injection site induration (human, 0.1 mg/kg): 3 (75.0) n (%)
Treatment-emergent AE: Injection site pain (human, 0.1 mg/kg): 1 (25.0) n (%)
Treatment-emergent AE: Injection site pruritus (human, 0.1 mg/kg): 0 n (%)
Treatment-emergent AE: Injection site reaction (human, 0.1 mg/kg): 0 n (%)
Treatment-emergent AE: Injection site swelling (human, 0.1 mg/kg): 1 (25.0) n (%)
Treatment-emergent AE: Malaise (human, 0.1 mg/kg): 1 (25.0) n (%)
Treatment-emergent AE: Myalgia (human, 0.1 mg/kg): 1 (25.0) n (%)
Treatment-emergent AE: Nausea (human, 0.1 mg/kg): 2 (50.0) n (%)
Treatment-emergent AE: Thrombocytopenia (human, 0.1 mg/kg): 0 n (%)
Treatment-emergent AE: Vomiting (human, 0.1 mg/kg): 4 (100) n (%)
Treatment-emergent AE: Abdominal pain (human, 0.2 mg/kg): 1 (25.0) n (%)
Treatment-emergent AE: Anemia (human, 0.2 mg/kg): 0 n (%)
Treatment-emergent AE: Back pain (human, 0.2 mg/kg): 1 (25.0) n (%)
Treatment-emergent AE: Blood bilirubin increased (human, 0.2 mg/kg): 1 (25.0) n (%)
Treatment-emergent AE: Constipation (human, 0.2 mg/kg): 1 (25.0) n (%)
Treatment-emergent AE: Cough (human, 0.2 mg/kg): 0 n (%)
Treatment-emergent AE: Decreased appetite (human, 0.2 mg/kg): 3 (75.0) n (%)
Treatment-emergent AE: Dehydration (human, 0.2 mg/kg): 0 n (%)
Treatment-emergent AE: Diarrhea (human, 0.2 mg/kg): 1 (25.0) n (%)
Treatment-emergent AE: Dizziness (human, 0.2 mg/kg): 1 (25.0) n (%)
Treatment-emergent AE: Dry mouth (human, 0.2 mg/kg): 1 (25.0) n (%)
Treatment-emergent AE: Dysgeusia (human, 0.2 mg/kg): 1 (25.0) n (%)
Treatment-emergent AE: Dyspnea (human, 0.2 mg/kg): 2 (50.0) n (%)
Treatment-emergent AE: Fatigue (human, 0.2 mg/kg): 2 (50.0) n (%)
Treatment-emergent AE: Headache (human, 0.2 mg/kg): 1 (25.0) n (%)
Treatment-emergent AE: Hypomagnesaemia (human, 0.2 mg/kg): 0 n (%)
Treatment-emergent AE: Injection site erythema (human, 0.2 mg/kg): 3 (75.0) n (%)
Treatment-emergent AE: Injection site induration (human, 0.2 mg/kg): 2 (50.0) n (%)
Treatment-emergent AE: Injection site pain (human, 0.2 mg/kg): 2 (50.0) n (%)
Treatment-emergent AE: Injection site pruritus (human, 0.2 mg/kg): 1 (25.0) n (%)
Treatment-emergent AE: Injection site reaction (human, 0.2 mg/kg): 0 n (%)
Treatment-emergent AE: Injection site swelling (human, 0.2 mg/kg): 2 (50.0) n (%)
Treatment-emergent AE: Malaise (human, 0.2 mg/kg): 1 (25.0) n (%)
Treatment-emergent AE: Myalgia (human, 0.2 mg/kg): 0 n (%)
Treatment-emergent AE: Nausea (human, 0.2 mg/kg): 2 (50.0) n (%)
Treatment-emergent AE: Thrombocytopenia (human, 0.2 mg/kg): 0 n (%)
Treatment-emergent AE: Vomiting (human, 0.2 mg/kg): 2 (50.0) n (%)
Treatment-emergent AE: Abdominal pain (human, 0.3 mg/kg): 1 (16.7) n (%)
Treatment-emergent AE: Anemia (human, 0.3 mg/kg): 2 (33.3) n (%)
Treatment-emergent AE: Back pain (human, 0.3 mg/kg): 0 n (%)
Treatment-emergent AE: Blood bilirubin increased (human, 0.3 mg/kg): 1 (16.7) n (%)
Treatment-emergent AE: Constipation (human, 0.3 mg/kg): 0 n (%)
Treatment-emergent AE: Cough (human, 0.3 mg/kg): 0 n (%)
Treatment-emergent AE: Decreased appetite (human, 0.3 mg/kg): 6 (100) n (%)
Treatment-emergent AE: Dehydration (human, 0.3 mg/kg): 2 (33.3) n (%)
Treatment-emergent AE: Diarrhea (human, 0.3 mg/kg): 2 (33.3) n (%)
Treatment-emergent AE: Dizziness (human, 0.3 mg/kg): 1 (16.7) n (%)
Treatment-emergent AE: Dry mouth (human, 0.3 mg/kg): 2 (33.3) n (%)
Treatment-emergent AE: Dysgeusia (human, 0.3 mg/kg): 1 (16.7) n (%)
Treatment-emergent AE: Dyspnea (human, 0.3 mg/kg): 0 n (%)
Treatment-emergent AE: Fatigue (human, 0.3 mg/kg): 2 (33.3) n (%)
Treatment-emergent AE: Headache (human, 0.3 mg/kg): 3 (50.0) n (%)
Treatment-emergent AE: Hypomagnesaemia (human, 0.3 mg/kg): 1 (16.7) n (%)
Treatment-emergent AE: Injection site erythema (human, 0.3 mg/kg): 3 (50.0) n (%)
Treatment-emergent AE: Injection site induration (human, 0.3 mg/kg): 2 (33.3) n (%)
Treatment-emergent AE: Injection site pain (human, 0.3 mg/kg): 2 (33.3) n (%)
Treatment-emergent AE: Injection site pruritus (human, 0.3 mg/kg): 2 (33.3) n (%)
Treatment-emergent AE: Injection site reaction (human, 0.3 mg/kg): 0 n (%)
Treatment-emergent AE: Injection site swelling (human, 0.3 mg/kg): 2 (33.3) n (%)
Treatment-emergent AE: Malaise (human, 0.3 mg/kg): 1 (16.7) n (%)
Treatment-emergent AE: Myalgia (human, 0.3 mg/kg): 3 (50.0) n (%)
Treatment-emergent AE: Nausea (human, 0.3 mg/kg): 3 (50.0) n (%)
Treatment-emergent AE: Thrombocytopenia (human, 0.3 mg/kg): 1 (16.7) n (%)
Treatment-emergent AE: Vomiting (human, 0.3 mg/kg): 2 (33.3) n (%)
Treatment-emergent AE: Injection site swelling (human, 0.65 mg/kg): 0 n (%)
Recommended phase 2 dose (human, sc): 0.65 mg/kg
DLTs due to thrombocytopenia: no DLTs due to thrombocytopenia
Left ventricular ejection fraction after reduction: 45–50%
